ChEMBL document CHEMBL4680293, “Tubulin inhibitory activity of a novel colchicine-binding compounds based on a dinaphthospiropyranran scaffold” (Bioorg Med Chem, 2021)
The source made the active and inactive calls. The calls are words filed in the database; no cut-off is given here.

Columns and labels:
M14 = test: Anti-cancer activity against human M14 cells assessed as cell growth inhibition measured after 48 hrs by SRB method; assay type: functional, cell-based
SF-268 = test: Anti-cancer activity against human SF-268 cells assessed as cell growth inhibition measured after 48 hrs by SRB method; assay type: functional, cell-based
HL-60(TB) = test: Anti-cancer activity against human HL-60(TB) cells assessed as cell growth inhibition measured after 48 hrs by SRB method; assay type: functional, cell-based
SK-MEL-2 = test: Anti-cancer activity against human SK-MEL-2 cells assessed as cell growth inhibition measured after 48 hrs by SRB method; assay type: functional, cell-based
A498 = test: Anti-cancer activity against human A498 cells assessed as cell growth inhibition measured after 48 hrs by SRB method; assay type: functional, cell-based
HOP-62 = test: Anti-cancer activity against human HOP-62 cells assessed as cell growth inhibition measured after 48 hrs by SRB method; assay type: functional, cell-based
MDA-MB-231 = test: Anti-cancer activity against human MDA-MB-231 cells assessed as cell growth inhibition measured after 48 hrs by SRB method; assay type: functional, cell-based
MCF7 = test: Anti-cancer activity against human MCF-7 cells assessed as cell growth inhibition measured after 48 hrs by SRB method; assay type: functional, cell-based
HCT-116 = test: Anti-cancer activity against human HCT-116 cells assessed as cell growth inhibition measured after 48 hrs by SRB method; assay type: functional, cell-based
MOLT-4 = test: Anti-cancer activity against human MOLT-4 cells assessed as cell growth inhibition measured after 48 hrs by SRB method; assay type: functional, cell-based
SNB-19 = test: Anti-cancer activity against human SNB-19 cells assessed as cell growth inhibition measured after 48 hrs by SRB method; assay type: functional, cell-based
COLO 205 = test: Anti-cancer activity against human COLO205 cells assessed as cell growth inhibition measured after 48 hrs by SRB method; assay type: functional, cell-based
SK-MEL-28 = test: Anti-cancer activity against human SK-MEL-28 cells assessed as cell growth inhibition measured after 48 hrs by SRB method; assay type: functional, cell-based
[1] = Anti-cancer activity against human renal cancer cells assessed as cell growth inhibition measured after 48 hrs by SRB method; assay type: functional; settings: Renal cancer cell line
[2] = Anti-cancer activity against human ovarian cancer cells assessed as cell growth inhibition measured after 48 hrs by SRB method; assay type: functional; settings: Ovarian cancer cell line
KM12 = test: Anti-cancer activity against human KM12 cells assessed as cell growth inhibition measured after 48 hrs by SRB method; assay type: functional, cell-based
SF-295 = test: Anti-cancer activity against human SF-295 cells assessed as cell growth inhibition measured after 48 hrs by SRB method; assay type: functional, cell-based
OVCAR-8 = test: Anti-cancer activity against human OVCAR-8 cells assessed as cell growth inhibition measured after 48 hrs by SRB method; assay type: functional, cell-based
T47D = test: Anti-cancer activity against human T47D cells assessed as cell growth inhibition measured after 48 hrs by SRB method; assay type: functional, cell-based
Tubulin (Homo sapiens) = Tubulin (Homo sapiens) (UniProt P68371+Q9H4B7+P0DPH7+P68366+Q13509+Q71U36+P04350+Q3ZCM7+P07437+P68363+Q9BQE3+Q6PEY2+Q13885+Q9BVA1+Q9BUF5); test: Disruption of tubulin in human HCT-116 cells assessed as induction of tubulin reorganization at 20 uM after 48 hrs by DAPI staining based immunofluorescence method; assay type: cell-based
NCI-H322M = test: Anti-cancer activity against human NCI-H322M cells assessed as cell growth inhibition measured after 48 hrs by SRB method; assay type: functional, cell-based
DU-145 = test: Anti-cancer activity against human DU-145 cells assessed as cell growth inhibition measured after 48 hrs by SRB method; assay type: functional, cell-based
NCI-H522 = test: Anti-cancer activity against human NCI-H522 cells assessed as cell growth inhibition measured after 48 hrs by SRB method; assay type: functional, cell-based
[3] = Anti-cancer activity against human colon cancer cells assessed as cell growth inhibition measured after 48 hrs by SRB method; assay type: functional; settings: Colon cancer cell line
TK-10 = test: Anti-cancer activity against human TK-10 cells assessed as cell growth inhibition measured after 48 hrs by SRB method; assay type: functional, cell-based
IGROV-1 = test: Anti-cancer activity against human IGROV1 cells assessed as cell growth inhibition measured after 48 hrs by SRB method; assay type: functional, cell-based
SR = test: Anti-cancer activity against human SR cells assessed as cell growth inhibition measured after 48 hrs by SRB method; assay type: functional, cell-based

Compound: C1=C2CNCC3=Cc4c(ccc5ccccc45)OC23Oc2ccc3ccccc3c21
- IC50 (M14; M14, 48 h): 3.8 µM
- GI50 (M14; M14, time 48 hrs): 2.19 µM
- TGI (M14; M14, time 48 hrs): 5.13 µM
- CC50 (M14; M14, time 48 hrs, read-out: LC50 (the source's name)): 4.56 µM
- IC50 (SF-268; SF-268, 48 h): 12.3 µM
- GI50 (SF-268; SF-268, time 48 hrs): 5.62 µM
- TGI (SF-268; SF-268, time 48 hrs): 22.4 µM
- CC50 (SF-268; SF-268, time 48 hrs, read-out: LC50 (the source's name)): 4.15 µM
- IC50 (HL-60(TB); HL-60, 48 h): 5.32 µM
- GI50 (HL-60(TB); HL-60, time 48 hrs): 5.57 µM
- TGI (HL-60(TB); HL-60, time 48 hrs): 5.11 µM
- CC50 (HL-60(TB); HL-60, time 48 hrs, read-out: LC50 (the source's name)): 4.07 µM
- IC50 (SK-MEL-2; SK-MEL-2, 48 h): 25.7 µM
- GI50 (SK-MEL-2; SK-MEL-2, time 48 hrs): 5.5 µM
- TGI (SK-MEL-2; SK-MEL-2, time 48 hrs): 22.9 µM
- CC50 (SK-MEL-2; SK-MEL-2, time 48 hrs, read-out: LC50 (the source's name)): 4.03 µM
- IC50 (A498; A498, 48 h): 16.2 µM
- GI50 (A498; A498, time 48 hrs): 3.89 µM
- TGI (A498; A498, time 48 hrs): 17 µM
- CC50 (A498; A498, time 48 hrs, read-out: LC50 (the source's name)): 4.34 µM
- IC50 (HOP-62; HOP-62, 48 h): 12.3 µM
- GI50 (HOP-62; HOP-62, time 48 hrs): 4.47 µM
- TGI (HOP-62; HOP-62, time 48 hrs): 16.6 µM
- IC50 (MDA-MB-231; MDA-MB-231, 48 h): 22.9 µM
- GI50 (MDA-MB-231; MDA-MB-231, time 48 hrs): 9.33 µM
- TGI (MDA-MB-231; MDA-MB-231, time 48 hrs): 26.9 µM
- CC50 (MDA-MB-231; MDA-MB-231, time 48 hrs, read-out: LC50 (the source's name)): 4.12 µM
- IC50 (MCF7; MCF7, 48 h): 3.98 µM
- GI50 (MCF7; MCF7, time 48 hrs): 2.82 µM
- TGI (MCF7; MCF7, time 48 hrs): 12.6 µM
- CC50 (MCF7; MCF7, time 48 hrs, read-out: LC50 (the source's name)): 4.26 µM
- IC50 (HCT-116; HCT-116, 48 h): 3.72 µM
- GI50 (HCT-116; HCT-116, time 48 hrs): 3.02 µM
- LC50 (HCT-116; HCT-116, time 48 hrs): 4 µM
- TGI (HCT-116; HCT-116, time 48 hrs): 13.2 µM
- IC50 (MOLT-4; MOLT-4, 48 h): 5.13 µM
- GI50 (MOLT-4; MOLT-4, time 48 hrs): 2.88 µM
- LC50 (MOLT-4; MOLT-4, time 48 hrs): 4 µM
- TGI (MOLT-4; MOLT-4, time 48 hrs): 10.5 µM
- IC50 (SNB-19; SNB-19, 48 h): 15.8 µM
- GI50 (SNB-19; SNB-19, time 48 hrs): 6.92 µM
- LC50 (SNB-19; SNB-19, time 48 hrs): 4 µM
- TGI (SNB-19; SNB-19, time 48 hrs): 29.5 µM
- IC50 (COLO 205; COLO 205, 48 h): 3.72 µM
- GI50 (COLO 205; COLO 205, time 48 hrs): 2.09 µM
- TGI (COLO 205; COLO 205, time 48 hrs): 4.27 µM
- CC50 (COLO 205; COLO 205, time 48 hrs, read-out: LC50 (the source's name)): 5.07 µM
- TGI (SK-MEL-28): inactive
- IC50 (SK-MEL-28; SK-MEL-28, 48 h): 10 µM
- GI50 (SK-MEL-28; SK-MEL-28, time 48 hrs): 7.41 µM
- GI50 [1]: 3.98 µM
- GI50 [2]: 3.63 µM
- IC50 (KM12; KM12, 48 h): 5.75 µM
- GI50 (KM12; KM12, time 48 hrs): 3.8 µM
- LC50 (KM12; KM12, time 48 hrs): 4.25 µM
- TGI (KM12; KM12, time 48 hrs): 16.2 µM
- IC50 (SF-295; SF-295, 48 h): 5.25 µM
- GI50 (SF-295; SF-295, time 48 hrs): 3.09 µM
- TGI (SF-295; SF-295, time 48 hrs): 15.5 µM
- CC50 (SF-295; SF-295, time 48 hrs, read-out: LC50 (the source's name)): 4 µM
- IC50 (OVCAR-8; OVCAR-8, 48 h): 4.79 µM
- GI50 (OVCAR-8; OVCAR-8, time 48 hrs): 3.02 µM
- TGI (OVCAR-8; OVCAR-8, time 48 hrs): 14.8 µM
- CC50 (OVCAR-8; OVCAR-8, time 48 hrs, read-out: LC50 (the source's name)): 4 µM
- IC50 (T47D; 48 h): 24.5 µM
- GI50 (T47D; time 48 hrs): 8.32 µM
- TGI (T47D; time 48 hrs): 23.4 µM
- CC50 (T47D; time 48 hrs, read-out: LC50 (the source's name)): 4.22 µM
- Activity (Tubulin (Homo sapiens)): Active
- IC50 (NCI-H322M; 48 h): 27.5 µM
- GI50 (NCI-H322M; time 48 hrs): 10.7 µM
- TGI (NCI-H322M; time 48 hrs): 33.1 µM
- IC50 (DU-145; DU-145, 48 h): 4.68 µM
- GI50 (DU-145; DU-145, time 48 hrs): 3.31 µM
- TGI (DU-145; DU-145, time 48 hrs): 11.2 µM
- CC50 (DU-145; DU-145, time 48 hrs, read-out: LC50 (the source's name)): 4.41 µM
- IC50 (NCI-H522; NCI-H522, 48 h): 9.55 µM
- GI50 (NCI-H522; NCI-H522, time 48 hrs): 3.02 µM
- TGI (NCI-H522; NCI-H522, time 48 hrs): 13.2 µM
- CC50 (NCI-H522; NCI-H522, time 48 hrs, read-out: LC50 (the source's name)): 4.15 µM
- GI50 [3]: 3.09 µM
- IC50 (TK-10; TK-10, 48 h): 26.9 µM
- GI50 (TK-10; TK-10, time 48 hrs): 9.12 µM
- TGI (TK-10; TK-10, time 48 hrs): 27.5 µM
- IC50 (IGROV-1; IGROV-1, 48 h): 20.9 µM
- GI50 (IGROV-1; IGROV-1, time 48 hrs): 9.55 µM
- LC50 (concentration killing 50% of cells) (IGROV-1; IGROV-1, time 48 hrs): 4.08 µM
- TGI (IGROV-1; IGROV-1, time 48 hrs): 28.8 µM
- IC50 (SR; 48 h): 3.8 µM
- GI50 (SR; time 48 hrs): 2.19 µM
- LC50 (SR; time 48 hrs): 4 µM
- TGI (SR; time 48 hrs): 5.37 µM
